Source: US4308181A, “Polypeptide compositions” (American Home Products Corporation, priority 1980, dated 1981)
Residues, ends and D or L forms follow the SMILES beside them.

Test system: T lymphocytes isolated from spleens of male CBA/J or NZB mice
Experiment: T lymphocyte proliferation, 3H-thymidine uptake
Type: cell-based
Details: 48 h culture
Experimental: The activity of the compounds of the Examples is determined according to the following procedure:
T lymphocytes are isolated from spleens of male CBA/J or NZB mice. Cell homogenates are prepared in Hank's balanced salt solution (HBSS). After removal of larger particles and repeated washing of the cells in HBSS they are suspended in minimum essential medium (MEM) and passed through a glass wool column to remove macrophages. The cells are then incubated on a nylon wool column at 37° C., 95% air, 5% CO2, for 45 minutes. The non-adherant T lymphocytes are then eluted from the column, counted, and adjusted to 20×10^6 cells/ml. 50 μl. of cells are cultured (37° C., 95% air, 5% CO2) with compound, for 48 hours before addition of 0.5 μCi. of 3H-thymidine for the last 16 hours of culture. The total volume of the culture system is 200 μ l. The cells are then harvested on a multiple automatic sample harvester (MashII), the glass fiber filter disks placed in 10 ml. of xylene base scintillation fluid, and counted for 1 minute in a liquid scintillation counter. Results are reported as CPM+SE. Comparisons are made between counts obtained with control cultures and cultures containing compound and a determination made as to whether the compounds are active at the dosage tested.

[1] = 0.75 ng/culture, run with control 19,275 ± 1298
[2] = 1.5 ng/culture, run with control 9,876 ± 951
[3] = 1.5 ng/culture, run with control 19,275 ± 1298
[4] = 6.0 ng/culture, run with control 9,876 ± 951
[5] = 6.0 ng/culture, run with control 19,275 ± 1298
[6] = 25 ng/culture, run with control 9,876 ± 951
[7] = 100 ng/culture, run with control 9,876 ± 951

Row | Structure (SMILES) | H-Thymidine Uptake CPM + S.E. [1] | H-Thymidine Uptake CPM + S.E. [2] | H-Thymidine Uptake CPM + S.E. [3] | H-Thymidine Uptake CPM + S.E. [4] | H-Thymidine Uptake CPM + S.E. [5] | H-Thymidine Uptake CPM + S.E. [6] | H-Thymidine Uptake CPM + S.E. [7] | H-Thymidine Uptake CPM + S.E. (25 ng/culture, run with control 19,275 ± 1298)
1 | CC(=O)NCC(=O)N[C@@H](CO)C(=O)N[C@@H](Cc1c[nH]cn1)C(=O)N[C@@H](CC(C)C)C(N)=O [Ac--Gly--Ser--His--Leu--NH2, N-acetylglycyl-L-seryl-L-histidyl-L-leucinaminde, acetate] (Ac-GSHL-NH2) | 41,019 ± 6047 CPM | 15,028 ± 1178 CPM | 48,033 ± 5499 CPM | 19,423 ± 1031 CPM | 38,254 ± 7188 CPM | 19,433 ± 3092 CPM | 20,409 ± 4081 CPM | –
2 | CC(=O)N[C@@H](CO)C(=O)N[C@@H](Cc1c[nH]cn1)C(=O)N[C@@H](CC(C)C)C(=O)N[C@H](C(N)=O)C(C)C.CC(=O)O [Ac--Ser--His--Leu--Val--NH2, N-acetylseryl-L-histidyl-L-leucyl-L-valinamide, acetate] (Ac-SHLV-NH2) | 26,137 ± 6158 CPM | 30,925 ± 3256 CPM | 32,646 ± 2284 CPM | 26,741 ± 3049 CPM | 30,425 ± 8896 CPM | 28,206 ± 2233 CPM | 20,758 ± 3027 CPM | 32,278 ± 5373 CPM
